Laboratory results reported in patent publication US11419335B2, “N-arylated analogues and uses thereof” (University of Florida Research Foundation, Incorporated, priority 2016, dated 2022).
Like-named read-outs stand apart in the source and are kept apart here. Values belong to the compound of their own block, whether it stands above or below them.

Experiments:
[1] = tested on: methicillin-resistant Staphylococcus aureus MRSA-2 (clinical isolate); test: MIC broth microdilution, MRSA-2; format: cell-based; conditions: for MIC: read-out: MIC MRSA-2
Method: (§1) The minimum inhibitory concentration (MIC) for each tested compound was determined by the broth microdilution method as recommended by the Clinical and Laboratory Standards Institute (CLSI). In a 96-well plate, eleven two-fold serial dilutions of each compound were made in a final volume of 100 μL Luria Broth. Each well was inoculated with ˜10^5 bacterial cells at the initial time of incubation, prepared from a fresh log phase culture (OD600 of 0.5 to 1.0 depending on bacterial strain). The MIC was defined as the lowest concentration of compound that prevented bacterial growth after incubating 16 to 18 hours at 37° C. (MIC values were supported by spectrophotometric readings at OD600). DMSO served as our vehicle and negative control in each microdilution MIC assay. DMSO was serially diluted with a top concentration of 1% v/v.
as §1, with “for each compound was” for “for each tested compound was”, “Standards Institute (CLSI).^6 In a” for “Standards Institute (CLSI). In a”, “concentration of test compound that” for “concentration of compound that”, “37° C. The concentration range tested for each compound during this study was 0.10 to 100 μM. DMSO served” for “37° C. (MIC values were supported by spectrophotometric readings at OD600). DMSO served”, “1% v/v. All MIC values were obtained from a minimum of three independent experiments.” for “1% v/v.”

MRSA BAA-1707 = test: MIC broth microdilution, MRSA BAA-1707; format: cell-based, Staphylococcus aureus
Method: as §1, with “The MIC was defined as the lowest concentration of compound that prevented bacterial growth after incubating 16 to 18 hours at 37° C.” left out
(§2) Each well was inoculated with ˜10^5 bacterial cells at the initial time of incubation, prepared from a fresh log phase culture (OD600 of 0.5 to 1.0 depending on bacterial strain). […] The concentration range tested for each compound during this study was 0.10 to 100 μM. DMSO served as our vehicle and negative control in each microdilution MIC assay. DMSO was serially diluted with a top concentration of 1% v/v. All MIC values were obtained from a minimum of three independent experiments.

[2] = tested on: methicillin-resistant Staphylococcus epidermidis (MRSE strain ATCC 35984); test: MIC broth microdilution, MRSE 35984; format: cell-based; conditions: Table 4
Method: as §1
as §1, with “for each compound was” for “for each tested compound was”, “Standards Institute (CLSI).^6 In a” for “Standards Institute (CLSI). In a”, “concentration of test compound that” for “concentration of compound that”, “37° C. The concentration range tested for each compound during this study was 0.10 to 100 μM. DMSO served” for “37° C. (MIC values were supported by spectrophotometric readings at OD600). DMSO served”, “1% v/v. All MIC values were obtained from a minimum of three independent experiments.” for “1% v/v.”

[3] = tested on: vancomycin-resistant Enterococcus faecium (VRE strain ATCC 700221); test: MIC broth microdilution, VRE 700221; format: cell-based; conditions: Table 4
Method: as §1
as §1, with “for each compound was” for “for each tested compound was”, “Standards Institute (CLSI).^6 In a” for “Standards Institute (CLSI). In a”, “concentration of test compound that” for “concentration of compound that”, “37° C. The concentration range tested for each compound during this study was 0.10 to 100 μM. DMSO served” for “37° C. (MIC values were supported by spectrophotometric readings at OD600). DMSO served”, “1% v/v. All MIC values were obtained from a minimum of three independent experiments.” for “1% v/v.”

[4] = tested on: Acinetobacter baumannii (ATCC 1794); test: MIC broth microdilution, A. baumannii 1794; format: cell-based; conditions: Table 4
Method: as §1
as §1, with “for each compound was” for “for each tested compound was”, “Standards Institute (CLSI).^6 In a” for “Standards Institute (CLSI). In a”, “concentration of test compound that” for “concentration of compound that”, “37° C. The concentration range tested for each compound during this study was 0.10 to 100 μM. DMSO served” for “37° C. (MIC values were supported by spectrophotometric readings at OD600). DMSO served”, “1% v/v. All MIC values were obtained from a minimum of three independent experiments.” for “1% v/v.”

[5] = tested on: Pseudomonas aeruginosa (PAO1); test: MIC broth microdilution, PAO1; format: cell-based; conditions: Table 4
Method: as §1
as §1, with “for each compound was” for “for each tested compound was”, “Standards Institute (CLSI).^6 In a” for “Standards Institute (CLSI). In a”, “concentration of test compound that” for “concentration of compound that”, “37° C. The concentration range tested for each compound during this study was 0.10 to 100 μM. DMSO served” for “37° C. (MIC values were supported by spectrophotometric readings at OD600). DMSO served”, “1% v/v. All MIC values were obtained from a minimum of three independent experiments.” for “1% v/v.”

[6] = tested on: Klebsiella pneumoniae (ATCC 13883); test: MIC broth microdilution, K. pneumoniae 13883; format: cell-based; conditions: Table 4
Method: as §1
as §1, with “for each compound was” for “for each tested compound was”, “Standards Institute (CLSI).^6 In a” for “Standards Institute (CLSI). In a”, “concentration of test compound that” for “concentration of compound that”, “37° C. The concentration range tested for each compound during this study was 0.10 to 100 μM. DMSO served” for “37° C. (MIC values were supported by spectrophotometric readings at OD600). DMSO served”, “1% v/v. All MIC values were obtained from a minimum of three independent experiments.” for “1% v/v.”

[7] = tested on: Escherichia coli clinical isolate (UAEC-1); test: MIC broth microdilution, UAEC-1; format: cell-based; conditions: Table 4
Method: as §1
as §1, with “for each compound was” for “for each tested compound was”, “Standards Institute (CLSI).^6 In a” for “Standards Institute (CLSI). In a”, “concentration of test compound that” for “concentration of compound that”, “37° C. The concentration range tested for each compound during this study was 0.10 to 100 μM. DMSO served” for “37° C. (MIC values were supported by spectrophotometric readings at OD600). DMSO served”, “1% v/v. All MIC values were obtained from a minimum of three independent experiments.” for “1% v/v.”

C. albicans SC5314 = test: Fungal MIC susceptibility assay, C. albicans; format: cell-based, Candida albicans; conditions: Candida albicans, SC5314; Table 4; antifungal
Method: (§3) Fungal minimum inhibition concentrations (MICs) were determined using standard microdilution methods according to the Clinical and Laboratory Standards Institute document M27-A3. The test compound concentration ranged from 0.01 to 100 μM. Amphotericin B (AmB) and itraconazole (ITC) (Fisher Scientific) were included as positive controls. DMSO, the vehicle control, was used at ≤1% v/v for these experiments. The fungal M27-A3 standard MIC assay protocol requires the following inoculum preparation protocol: The organisms were cultured onto PDA medium at 35° C. The inoculum is prepared by picking five colonies from 24-hour old culture of Candida spp. or 48-hour old culture of C. neoformans. The inoculum was suspended in 5 ml of sterile water, the resulting suspension was vortexed for 15 seconds and the cell density adjusted (by adding more sterile water) to an OD530=0.30, which yields a suspension of 1×10^6 to 5×10^6 cells per mL. The suspension was diluted 50 times and then 20 times using RPMI 1640 medium to obtain the two times test inoculum (1×10^3 to 5×10^3 cells per mL). The following steps are the same with the standard bacterial MIC protocol using 96-well plates. NOTE: RPMI 1640 medium was used in the fungal MIC assay (for both cell inoculum and compound dilution).

C. neoformans ATCC 66031 = test: Fungal MIC susceptibility assay, C. neoformans; format: cell-based; conditions: Cryptococcus neoformans, ATCC66031; Table 4; antifungal; read-out: MIC C. neof 66031
Method: as §3

[8] = tested on: methicillin-sensitive Staphylococcus aureus ATCC 29213; test: MIC broth microdilution, S. aureus 29213; format: cell-based
Method: as §1, with “The MIC was defined as the lowest concentration of compound that prevented bacterial growth after incubating 16 to 18 hours at 37° C.” left out
as §2

- MIC ([1]; Staphylococcus aureus, MRSA, Table 4): > 100 µM
- MIC (MRSA BAA-1707; Staphylococcus aureus, Table 4, read-out: MIC MRSA 1707): > 100 µM
- MIC ([2]; Staphylococcus epidermidis, read-out: MIC MRSE 35984): > 100 µM
- MIC ([3]; read-out: MIC VRE 700221): > 100 µM
- MIC ([4]; Acinetobacter baumannii, ATCC1794, read-out: MIC A. bau. 1794): > 100 µM
- MIC ([5]; Pseudomonas aeruginosa, PAO1): > 100 µM
- MIC ([6]; Klebsiella pneumoniae, ATCC13883, read-out: MIC K. pneu. 13883): > 100 µM
- MIC ([7]; Escherichia coli): > 100 µM
- MIC (C. albicans SC5314): 50 µM
- MIC (C. neoformans ATCC 66031): 25 µM
SMILES: CCCCCCCCCCCCCCCCn1cc[n+](Cc2ccc(C[n+]3ccn(CCCCCCCCCCCCCCCC)c3C)cc2)c1C [Compound 28]

SMILES: CCCCCCCCCCCCCCCCn1cc[n+](-c2ccc(Cl)cc2)c1C.[Br-] [Compound 6]
- MIC ([1]; Table 1B): 3.13 µM
- MIC ([1]; Table 3): 3.13 µM
- MIC MRSA-2 ([1]; Table 4): 3.13 µM
- MIC (MRSA BAA-1707; Table 1B, read-out: MIC MRSA BAA-1707): 3.13 µM
- MIC (MRSA BAA-1707; Table 3, read-out: MIC MRSA BAA-1707): 3.13 µM
- MIC MRSA 1707 (MRSA BAA-1707; Table 4): 3.13 µM
- MIC MRSE 35984 [2]: 1.17a micromolar
- MIC VRE 700221 [3]: 1.56 µM
- MIC A. bau. 1794 [4]: 12.5 µM
- MIC PAO1 [5]: >100 µM
- MIC K. pneu. 13883 [6]: 6.25 µM
- MIC UAEC-1 [7]: 6.25 µM
- MIC ([8]; Table 1B): 3.13 µM
- MIC ([8]; Table 3): 3.13 µM
